Measured values reported in patent US20100298141A1, “SUBSTITUTED PYRIDINE N-OXIDE HERBICIDES” (E. I. DU PONT DE NEMOURS AND COMPANY, priority 2007, published 2010).

Assays:
Experiment in all cases: Test F preemergence test
Conditions in all cases: scale 0 to 100
[1] = test system: guineagrass; assay type: in vivo, Panicum maximum
In short: (§1)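 Test chemicals were formulated in a non-phytotoxic solvent mixture with surfactant and applied preemergence to planted seeds or postemergence to sugarcane plants. Plants were kept in a greenhouse for 14 to 21 days, then visually evaluated against controls.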

[2] = test system: broadleaf signalgrass; assay type: in vivo, Brachiaria platyphylla
In short: as §1

[3] = test system: purple nutsedge; assay type: in vivo, Cyperus rotundus
In short: as §1

[4] = test system: bermudagrass; assay type: in vivo, Cynodon dactylon
In short: as §1

[5] = test system: common purslane; assay type: in vivo, Portulaca oleracea
In short: as §1

[6] = test system: common ragweed; assay type: in vivo, Ambrosia elation
Description: (§2) Seeds of plant species selected from bermudagrass (Cynodon dactylon), Surinam grass (Brachiaria decumbens), large crabgrass (Digitaria sanguinalis), green foxtail (Setaria viridis), goosegrass (Eleusine indica), johnsongrass (Sorghum halepense), kochia (Kochia scoparia), pitted morningglory (Ipomoea lacunosa), purple nutsedge (Cyperus rotundus), common ragweed (Ambrosia elation), mustard (Brassica nigra), guineagrass (Panicum maximum), […] (Paspalum dilatatum), barnyardgrass (Echinochloa crus-galli), southern sandbur (Cenchrus echinatus), common sowthistle (Sonchus oleraceous), prickly […] spinosa), Italian ryegrass (Lolium multiflorum), common purslane (Portulaca oleracea), broadleaf signalgrass (Brachiaria platyphylla), common groundsel (Senecio vulgaris), common chickweed (Stellaria media), Virginia dayflower (Commelina virginica), annual bluegrass (Poa annua), naked crabgrass (Digitaria nuda), […] cochinchinensis), quackgrass (Elytrigia repens), Canada horseweed (Conyza canadensis), field bindweed (Convolvulus arvensis), […] (Bidens bipinnata), common mallow (Malva sylvestris), Russian thistle (Salsola kali), and sugarcane (Saccharum officinarum) were planted and treated preemergence with test chemicals formulated in a non-phytotoxic solvent mixture which included a surfactant. At a different time, sugarcane was treated with postemergence applications of some of the test chemicals formulated in the same manner. Plants were approximately 3- to 4-leaf stage for the postemergence treatments. Treated plants and controls were maintained in a greenhouse for 14 to 21 days, after which time all species were compared to controls and visually evaluated. […] A dash (-) response means no test result.

[7] = test system: Surinam grass; assay type: in vivo, Brachiaria decumbens
In short: as §1

[8] = test system: johnsongrass; assay type: in vivo, Sorghum halepense
In short: as §1

[9] = test system: pitted morningglory; assay type: in vivo, Ipomoea lacunosa
Description: as §2

[10] = test system: itchgrass; assay type: in vivo, Rottboellia cochinchinensis
In short: as §1

[11] = test system: southern sandbur; assay type: in vivo, Cenchrus echinatus
In short: as §1

[12] = test system: naked crabgrass; assay type: in vivo, Digitaria nuda
In short: as §1

[13] = test system: field bindweed; assay type: in vivo, Convolvulus arvensis
In short: as §1

[14] = test system: prickly sida; assay type: in vivo, Sida spinosa
In short: as §1

[15] = test system: goosegrass; assay type: in vivo, Eleusine indica
In short: as §1

[16] = test system: Italian ryegrass; assay type: in vivo, Lolium multiflorum
In short: as §1

## Cn1nc(C(F)(F)F)c(C[S+]([O-])c2cccc[n+]2[O-])c1OCC(F)(F)F (racemic) [Compound 28]
[1]; 62 g ai/ha, Preemergence
  Guineagrass plant response rating: 100
[1]; 125 g ai/ha, preemergence
  Guineagrass plant response rating: 100
[1]; Preemergence, 16 g ai/ha
  Plant response rating, Guineagrass: 75
[1]; Preemergence, 31 g ai/ha
  Plant response rating, Guineagrass: 100
[2]; 62 g ai/ha, Preemergence
  Signalgrass plant response rating: 90
[2]; 125 g ai/ha, preemergence
  Signalgrass plant response rating: 100
[2]; Preemergence, 31 g ai/ha
  Plant response rating, Signalgrass: 75
[3]; 62 g ai/ha, Preemergence
  Purple Nutsedge plant response rating: 80
[3]; 125 g ai/ha, preemergence
  Purple Nutsedge plant response rating: 90
[3]; Preemergence, 16 g ai/ha
  Plant response rating, Purple Nutsedge: 0
[3]; Preemergence, 31 g ai/ha
  Plant response rating, Purple Nutsedge: 25
[4]; 62 g ai/ha, Preemergence
  Bermudagrass plant response rating: 80
[4]; 125 g ai/ha, preemergence
  Bermudagrass plant response rating: 100
[4]; Preemergence, 16 g ai/ha
  Plant response rating, Bermudagrass: 0
[4]; Preemergence, 31 g ai/ha
  Plant response rating, Bermudagrass: 30
[5]; 62 g ai/ha, Preemergence
  Purslane plant response rating: 100
[5]; 125 g ai/ha, preemergence
  Purslane plant response rating: 100
[5]; Preemergence, 16 g ai/ha
  Plant response rating, Purslane: 0
[5]; Preemergence, 31 g ai/ha
  Plant response rating, Purslane: 60
[6]; 62 g ai/ha, Preemergence
  Ragweed plant response rating: 80
[6]; 125 g ai/ha, preemergence
  Ragweed plant response rating: 90
[6]; Preemergence, 16 g ai/ha
  Plant response rating, Ragweed: 20
[6]; Preemergence, 31 g ai/ha
  Plant response rating, Ragweed: 70
[7]; 62 g ai/ha, Preemergence
  Surinam Grass plant response rating: 100
[7]; 125 g ai/ha, preemergence
  Surinam Grass plant response rating: 100
[7]; Preemergence, 31 g ai/ha
  Plant response rating, Surinam Grass: 90
[8]; 62 g ai/ha, Preemergence
  Johnsongrass plant response rating: 100
[8]; 125 g ai/ha, preemergence
  Johnsongrass plant response rating: 100
[8]; Preemergence, 16 g ai/ha
  Plant response rating, Johnsongrass: 40
[8]; Preemergence, 31 g ai/ha
  Plant response rating, Johnsongrass: 75
[9]; 62 g ai/ha, Preemergence
  Morningglory plant response rating: 100
[9]; 125 g ai/ha, preemergence
  Morningglory plant response rating: 100
[9]; Preemergence, 16 g ai/ha
  Plant response rating, Morningglory: 30
[9]; Preemergence, 31 g ai/ha
  Plant response rating, Morningglory: 80
[10]; 62 g ai/ha, Preemergence
  Itchgrass plant response rating: 95
[10]; 125 g ai/ha, preemergence
  Itchgrass plant response rating: 100
[10]; Preemergence, 16 g ai/ha
  Plant response rating, Itchgrass: 20
[10]; Preemergence, 31 g ai/ha
  Plant response rating, Itchgrass: 35
[11]; 62 g ai/ha, Preemergence
  Sandbur plant response rating: 100
[11]; 125 g ai/ha, preemergence
  Sandbur plant response rating: 100
[11]; Preemergence, 31 g ai/ha
  Plant response rating, Sandbur: 90
[12]; 62 g ai/ha, Preemergence
  Crabgrass, Naked plant response rating: 90
[12]; 125 g ai/ha, preemergence
  Crabgrass, Naked plant response rating: 100
[12]; Preemergence, 16 g ai/ha
  Plant response rating, Crabgrass, Naked: 65
[12]; Preemergence, 31 g ai/ha
  Plant response rating, Crabgrass, Naked: 90
[13]; 62 g ai/ha, Preemergence
  Field Bindweed plant response rating: 80
[13]; 125 g ai/ha, preemergence
  Field Bindweed plant response rating: 90
[13]; Preemergence, 16 g ai/ha
  Plant response rating, Field Bindweed: 60
[13]; Preemergence, 31 g ai/ha
  Plant response rating, Field Bindweed: 70
[14]; 62 g ai/ha, Preemergence
  Prickly Sida plant response rating: 100
[14]; 125 g ai/ha, preemergence
  Prickly Sida plant response rating: 100
[14]; Preemergence, 16 g ai/ha
  Plant response rating, Prickly Sida: 15
[14]; Preemergence, 31 g ai/ha
  Plant response rating, Prickly Sida: 90
[15]; 62 g ai/ha, Preemergence
  Goosegrass plant response rating: 100
[15]; 125 g ai/ha, preemergence
  Goosegrass plant response rating: 100
[15]; Preemergence, 16 g ai/ha
  Plant response rating, Goosegrass: 65
[15]; Preemergence, 31 g ai/ha
  Plant response rating, Goosegrass: 98
[16]; 62 g ai/ha, Preemergence
  Ryegrass, Italian plant response rating: 100
[16]; 125 g ai/ha, preemergence
  Ryegrass, Italian plant response rating: 100
[16]; Preemergence, 16 g ai/ha
  Plant response rating, Ryegrass, Italian: 65
[16]; Preemergence, 31 g ai/ha
  Plant response rating, Ryegrass, Italian: 98

## Cn1nc(C(F)(F)F)c(C[S+]([O-])c2ccc(Cl)c[n+]2[O-])c1OC(F)F (stereo not shown) [Compound 6]
[1]; 8 g ai/ha, preemergence
  Plant response rating, Guineagrass: 100
[1]; 62 g ai/ha, Preemergence
  Guineagrass plant response rating: 100
[1]; Preemergence, 16 g ai/ha
  Plant response rating, Guineagrass: 100
[1]; Preemergence, 31 g ai/ha
  Plant response rating, Guineagrass: 100
[2]; 8 g ai/ha, preemergence
  Plant response rating, Signalgrass: 0
[2]; 16 g ai/ha, preemergence
  Plant response rating, Signalgrass: 50
[2]; 62 g ai/ha, Preemergence
  Signalgrass plant response rating: 95
[2]; Preemergence, 31 g ai/ha
  Plant response rating, Signalgrass: 65
[3]; 8 g ai/ha, preemergence
  Plant response rating, Purple Nutsedge: 0
[3]; 62 g ai/ha, Preemergence
  Purple Nutsedge plant response rating: 75
[3]; Preemergence, 16 g ai/ha
  Plant response rating, Purple Nutsedge: 20
[3]; Preemergence, 31 g ai/ha
  Plant response rating, Purple Nutsedge: 20
[4]; 8 g ai/ha, preemergence
  Plant response rating, Bermudagrass: 0
[4]; 62 g ai/ha, Preemergence
  Bermudagrass plant response rating: 80
[4]; Preemergence, 16 g ai/ha
  Plant response rating, Bermudagrass: 15
[4]; Preemergence, 31 g ai/ha
  Plant response rating, Bermudagrass: 65
[5]; 8 g ai/ha, preemergence
  Plant response rating, Purslane: 10
[5]; 62 g ai/ha, Preemergence
  Purslane plant response rating: 70
[5]; Preemergence, 16 g ai/ha
  Plant response rating, Purslane: 20
[5]; Preemergence, 31 g ai/ha
  Plant response rating, Purslane: 50
[7]; 8 g ai/ha, preemergence
  Plant response rating, Surinam Grass: 0
[7]; 16 g ai/ha, preemergence
  Plant response rating, Surinam Grass: 60
[7]; 62 g ai/ha, Preemergence
  Surinam Grass plant response rating: 90
[7]; Preemergence, 31 g ai/ha
  Plant response rating, Surinam Grass: 70
[8]; 8 g ai/ha, preemergence
  Plant response rating, Johnsongrass: 75
[8]; 62 g ai/ha, Preemergence
  Johnsongrass plant response rating: 95
[8]; Preemergence, 16 g ai/ha
  Plant response rating, Johnsongrass: 75
[8]; Preemergence, 31 g ai/ha
  Plant response rating, Johnsongrass: 95
[9]; 8 g ai/ha, preemergence
  Plant response rating, Morningglory: 0
[9]; 62 g ai/ha, Preemergence
  Morningglory plant response rating: 75
[9]; Preemergence, 16 g ai/ha
  Plant response rating, Morningglory: 0
[9]; Preemergence, 31 g ai/ha
  Plant response rating, Morningglory: 75
[10]; 8 g ai/ha, preemergence
  Plant response rating, Itchgrass: 0
[10]; 62 g ai/ha, Preemergence
  Itchgrass plant response rating: 95
[10]; Preemergence, 16 g ai/ha
  Plant response rating, Itchgrass: 60
[10]; Preemergence, 31 g ai/ha
  Plant response rating, Itchgrass: 75
[11]; 8 g ai/ha, preemergence
  Plant response rating, Sandbur: 0
[11]; 16 g ai/ha, preemergence
  Plant response rating, Sandbur: 75
[11]; 62 g ai/ha, Preemergence
  Sandbur plant response rating: 100
[11]; Preemergence, 31 g ai/ha
  Plant response rating, Sandbur: 100
[12]; 8 g ai/ha, preemergence
  Plant response rating, Crabgrass, Naked: 0
[12]; 62 g ai/ha, Preemergence
  Crabgrass, Naked plant response rating: 100
[12]; Preemergence, 16 g ai/ha
  Plant response rating, Crabgrass, Naked: 65
[12]; Preemergence, 31 g ai/ha
  Plant response rating, Crabgrass, Naked: 80
[13]; 8 g ai/ha, preemergence
  Plant response rating, Field Bindweed: 0
[13]; 62 g ai/ha, Preemergence
  Field Bindweed plant response rating: 50
[13]; Preemergence, 16 g ai/ha
  Plant response rating, Field Bindweed: 50
[13]; Preemergence, 31 g ai/ha
  Plant response rating, Field Bindweed: 50
[14]; 8 g ai/ha, preemergence
  Plant response rating, Prickly Sida: 0
[14]; 62 g ai/ha, Preemergence
  Prickly Sida plant response rating: 100
[14]; Preemergence, 16 g ai/ha
  Plant response rating, Prickly Sida: 0
[14]; Preemergence, 31 g ai/ha
  Plant response rating, Prickly Sida: 80
[15]; 8 g ai/ha, preemergence
  Plant response rating, Goosegrass: 20
[15]; 62 g ai/ha, Preemergence
  Goosegrass plant response rating: 95
[15]; Preemergence, 16 g ai/ha
  Plant response rating, Goosegrass: 75
[15]; Preemergence, 31 g ai/ha
  Plant response rating, Goosegrass: 90
[16]; 8 g ai/ha, preemergence
  Plant response rating, Ryegrass, Italian: 0
[16]; 62 g ai/ha, Preemergence
  Ryegrass, Italian plant response rating: 85
[16]; Preemergence, 16 g ai/ha
  Plant response rating, Ryegrass, Italian: 40
[16]; Preemergence, 31 g ai/ha
  Plant response rating, Ryegrass, Italian: 75
